The source of these data is patent publication US6608078B2, “Antibacterial chiral 8-(substituted piperidino)-benzo [i,j] quinolizines, processes, compositions and methods of treatment” (Wockhardt Limited, priority 2000, dated 2003).

≈ marks a conversion by molar mass, not a printed value.

Holding throughout (assay type): cell-based
One assay deals with S. pneumoniae. In words: In-vitro antimicrobial test (MIC, NCCLS protocol). The following applies: standard NCCLS protocol. The text has this: (§1) The activity of the compounds of the invention in-vitro can be illustrated as follows:
(§2) The test method was in accordance with the standard NCCLS protocol.

In the next assay the test system is MRSA. In words: In-vitro antimicrobial test (MIC, NCCLS protocol). To be noted: standard NCCLS protocol.
Excerpt: as §1, §2

The next assay concerns VRE. In words: In-vitro antimicrobial test (MIC, NCCLS protocol). To be noted: standard NCCLS protocol.
Excerpt: as §1, §2

A further assay deals with P. aeruginosa. In words: In-vitro antimicrobial test (MIC, NCCLS protocol). To be noted: standard NCCLS protocol.
Excerpt: as §1, §2

In the next assay the test system is E. coli. In words: In-vitro antimicrobial test (MIC, NCCLS protocol). The following applies: standard NCCLS protocol.
Excerpt: as §1, §2

A further assay deals with streptococcal population. In words: % Killing of Streptococci, summary over strains. The following applies: exposed to 4×MIC concentrations for 8 hours; depending upon the streptococcal strain. The text has this: (§3) Comparison of a typical compound of the invention vs S-(−)-9-fluoro-8-(4′-hydroxypiperidin-1-yl)-5-methyl-6,7-dihydro-1-oxo-1H-5H-benzo[i,j]quinolizine-2-carboxylic acid in terms of % Killing of Streptococci
(§4) As against this, a typical compound of the invention, which has an improved bactericidal power againt streptococci, consistently brings about killing of 99% of streptococcal population.

A further assay concerns S. pneumoniae ATCC 6303. In words: % Killing of Streptococci at 4 MIC, 8 hrs.
Excerpt: as §3, §4

The subject of the next assay is S. sanguis ATCC 10556. In words: % Killing of Streptococci at 4 MIC, 8 hrs.
Excerpt: as §3, §4

In the next assay the test system is S. pyogenes ATCC 25147. In words: % Killing of Streptococci at 4 MIC, 8 hrs.
Excerpt: as §3, §4

The next assay deals with S. salivarius ATCC 13419. In words: % Killing of Streptococci at 4 MIC, 8 hrs.
Excerpt: as §3, §4

A word on the MIC: it is the least concentration at which growth counts as inhibited. A low value points to a more susceptible organism. For `CC1CN(c2c(F)cc3c(=O)c(C(=O)O)cn4c3c2CC[C@@H]4C)CCC1O` (mixture of isomers) [Compound A, S-(−)-9-fluoro-6,7-dihydro-8-{trans-4-(RS)-hydroxy-3-(RS)-methylpiperidin-1-yl}-5-methyl-1-oxo-1H,5H-benzo[i,j]quinolizine-2-carboxylic acid], the MIC is 0.2 µg/mL (≈ 0.534 µM) in the assay on S. pneumoniae; 0.4 µg/mL (≈ 1.07 µM) with MRSA; 6.25 µg/mL (≈ 16.7 µM) against VRE; 3.12 µg/mL (≈ 8.33 µM) in the assay with P. aeruginosa; 0.2 µg/mL (≈ 0.534 µM) against E. coli.
In the case of `CC1CN(c2c(F)cc3c(=O)c(C(=O)O)cn4c3c2CC[C@@H]4C)CCC1O` (mixture of isomers) [Compound B], the MIC in the assay on S. pneumoniae came out at 0.2 µg/mL (≈ 0.534 µM); with MRSA, 0.8 µg/mL (≈ 2.14 µM); against VRE, 6.25 µg/mL (≈ 16.7 µM); against P. aeruginosa it was 6.25 µg/mL (≈ 16.7 µM); in the assay with E. coli, 0.2 µg/mL (≈ 0.534 µM).
`CC1CCc2c(N3CCC(O)CC3)c(F)cc3c(=O)c(C(=O)O)cn1c23` (racemic) [Ref. 1, RS(±)-9-fluoro-8-(4′-hydroxypiperidin-1-yl)-5-methyl-6,7-dihydro-1-oxo-1H-5H-benzo[i,j]quinolizine-2-carboxylic acid, reference compound]: the MIC was 0.4 µg/mL (≈ 1.11 µM) against S. pneumoniae; 1.56 µg/mL (≈ 4.33 µM) with MRSA; 12.5 µg/mL (≈ 34.7 µM) in the assay with VRE; 6.25 µg/mL (≈ 17.3 µM) in the assay with P. aeruginosa; 0.4 µg/mL (≈ 1.11 µM) in the assay on E. coli.
`C[C@H]1CN(c2c(F)cc3c(=O)c(C(=O)O)cn4c3c2CC[C@@H]4C)CC[C@H]1O` (relative stereo) [Compound C, S-(−)-9-fluoro-6,7-dihydro-8-{cis-(−)-4-R-hydroxy-3-S-methylpiperidin-1-yl}-5-methyl-1-oxo-1H,5H-benzo[i,j]quinolizine-2-carboxylic acid]: the MIC stood at 0.1 µg/mL (≈ 0.267 µM) with S. pneumoniae; 0.8 µg/mL (≈ 2.14 µM) in the assay with MRSA; 6.25 µg/mL (≈ 16.7 µM) against VRE; 6.25 µg/mL (≈ 16.7 µM) against P. aeruginosa; 0.1 µg/mL (≈ 0.267 µM) in the assay on E. coli.
On to `C[C@@H]1CN(c2c(F)cc3c(=O)c(C(=O)O)cn4c3c2CC[C@@H]4C)CC[C@@H]1O` (relative stereo) [Compound D, S-(−)-9-fluoro-6,7-dihydro-8-{cis-(+)-4-S-hydroxy-3-R-methylpiperidin-1-yl}-5-methyl-1-oxo-1H,5H-benzo[i,j]quinolizine-2-carboxylic acid], for which the MIC with S. pneumoniae stood at 0.8 µg/mL (≈ 2.14 µM); against MRSA, 0.8 µg/mL (≈ 2.14 µM); in the assay with VRE, 6.25 µg/mL (≈ 16.7 µM); against P. aeruginosa it was 6.25 µg/mL (≈ 16.7 µM); in the assay on E. coli, 0.2 µg/mL (≈ 0.534 µM).
Take `CCC1CN(c2c(F)cc3c(=O)c(C(=O)O)cn4c3c2CC[C@@H]4C)CCC1O` (stereo partly drawn) [Compound E, S-(−)-9-fluoro-6,7-dihydro-8-(3-ethyl-4-hydroxypiperidin-1-yl)-5-methyl-1-oxo-1H,5H-benzo[i,j]quinolizine-2-carboxylic acid]: the MIC in the assay on S. pneumoniae was 0.2 µg/mL (≈ 0.515 µM); in the assay with MRSA, 1.56 µg/mL (≈ 4.02 µM); against VRE, 12.5 µg/mL (≈ 32.2 µM); against P. aeruginosa it was over 12.5 µg/mL; in the assay on E. coli, 0.8 µg/mL (≈ 2.06 µM).
Consider `C[C@H]1CCc2c(N3CCC(O)CC3)c(F)cc3c(=O)c(C(=O)O)cn1c23` [Ref. 2, S-(−)-9-fluoro-8-(4′-hydroxypiperidin-1-yl)-5-methyl-6,7-dihydro-1-oxo-1H-5H-benzo[i,j]quinolizine-2-carboxylic acid, reference compound], for which the “killing of streptococcal population” value in the assay with streptococcal population was at most 50%. The “4 MIC-% Kill at 8 hrs.” value amounted to 50% in the assay with S. pneumoniae ATCC 6303, 40% with S. sanguis ATCC 10556, 45.4% with S. pyogenes ATCC 25147 and 0% in the assay with S. salivarius ATCC 13419. Also, the MIC against S. pneumoniae amounted to 0.2 µg/mL (≈ 0.555 µM); in the assay on MRSA, 0.8 µg/mL (≈ 2.22 µM); against VRE, 6.25 µg/mL (≈ 17.3 µM); in the assay on P. aeruginosa, 3.12 µg/mL (≈ 8.66 µM); in the assay on E. coli it was 0.2 µg/mL (≈ 0.555 µM).
On to `CC1CN(c2c(F)cc3c(=O)c(C(=O)O)cn4c3c2CC[C@@H]4C)CCC1O` (stereo partly drawn) [Typical compound of the invention, S-(-)-9-fluoro-6,7-dihydro-8-(4-hydroxy-3-methylpiperidin-1-yl)-5-methyl-1-oxo-1H,5H-benzo[i,j]quinolizine-2-carboxylic acid], for which, in the assay with streptococcal population, the “killing of streptococcal population” value was found to be 99%. Also, the “4 MIC-% Kill at 8 hrs.” value came out at 99.8% in the assay on S. pneumoniae ATCC 6303, 98.6% in the assay on S. sanguis ATCC 10556, 98.4% with S. pyogenes ATCC 25147 and 99.7% with S. salivarius ATCC 13419.
